Results reported in patent US20080249042A1, “All-Trans-Retinol: All-Trans-13,14-Dihydroretinol Saturase and Methods of Its Use” (UNIVERSITY OF WASHINGTON, priority 2004, published 2008).

Key:
CYP26C1 = biological target: T1, CYP26C1 (Mus musculus, UniProt B2RXA7); details: 0.1 mM, 4 h, cells in culture
T1 sequence (B2RXA7 1-518): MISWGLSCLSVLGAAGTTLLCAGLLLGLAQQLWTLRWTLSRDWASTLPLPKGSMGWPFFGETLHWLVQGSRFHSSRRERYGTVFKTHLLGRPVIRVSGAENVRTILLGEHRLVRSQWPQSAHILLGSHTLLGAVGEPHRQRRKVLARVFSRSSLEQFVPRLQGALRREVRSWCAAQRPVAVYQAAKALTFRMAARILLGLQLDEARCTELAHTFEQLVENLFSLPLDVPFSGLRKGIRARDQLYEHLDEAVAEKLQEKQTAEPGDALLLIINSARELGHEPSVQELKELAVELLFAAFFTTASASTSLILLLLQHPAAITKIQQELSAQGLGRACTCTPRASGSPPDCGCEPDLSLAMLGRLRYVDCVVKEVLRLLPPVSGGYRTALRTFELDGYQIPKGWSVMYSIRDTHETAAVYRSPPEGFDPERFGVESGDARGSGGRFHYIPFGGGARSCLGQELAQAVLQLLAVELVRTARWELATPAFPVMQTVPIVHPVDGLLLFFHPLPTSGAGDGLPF
Procedure: (§1) CYP26A1 Oxidation Assay. […] After 24 h, the transfected cells were split into 12-well plates to ensure an equal number of transfected cells in each assay well. […] The peaks were identified based on their spectra and coelution with standards. The cell lysate was examined for expression of CYP26A1, -B1, and -C1 by SDS-PAGE and immunoblotting of the V5 epitope-tagged recombinant protein using an anti-V5 epitope monoclonal antibody (Invitrogen).

CYP26A1 = biological target: T2, CYP26A1 (Mus musculus, UniProt O55127); details: 0.1 mM, 4 h, cells in culture
T2 sequence (O55127 1-497): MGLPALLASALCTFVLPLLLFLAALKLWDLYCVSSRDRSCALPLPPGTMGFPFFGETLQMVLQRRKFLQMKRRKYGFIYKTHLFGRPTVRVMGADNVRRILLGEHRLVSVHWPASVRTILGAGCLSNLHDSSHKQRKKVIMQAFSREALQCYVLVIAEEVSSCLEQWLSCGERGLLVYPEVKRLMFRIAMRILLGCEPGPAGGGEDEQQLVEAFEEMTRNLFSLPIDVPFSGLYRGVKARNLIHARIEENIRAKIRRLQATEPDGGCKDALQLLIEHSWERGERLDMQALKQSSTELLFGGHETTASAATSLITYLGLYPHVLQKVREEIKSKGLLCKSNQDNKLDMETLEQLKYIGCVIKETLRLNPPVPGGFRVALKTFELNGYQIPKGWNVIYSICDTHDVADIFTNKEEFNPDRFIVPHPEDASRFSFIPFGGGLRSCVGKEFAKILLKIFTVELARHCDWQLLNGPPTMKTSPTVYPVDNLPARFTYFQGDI
Procedure: as §1

[1] = Conversion of DROL to DRA by RPE microsomes; assay type: in vitro ADME; details: in the presence of NAD and NADP
Procedure: Conversion of DROL to DRA in RPE. UV-treated RPE microsomes were prepared as described previously. Stecher, et al. J. Biol. Chem. 274:8577-8585, 1999. Twenty μl of UV-treated RPE microsomes (3 mg/ml) were mixed with 20 μM DROL or ROL substrates, 1% bovine serum albumin, and 50 mM Tris (pH 8.8) and were incubated at 37° C. for 60 min in the presence or absence of NAD NADP cofactor mixture at 50 μM each. In order to stop the reaction, proteins were precipitated by mixing with an equal volume of CH3CN followed by high speed centrifugation. […] A boiled RPE membrane control was used to assay nonenzymatic conversion of DROL. The elution of all-trans-DROL metabolites was monitored at 290 nm.

prRDH = biological target: T3, prRDH (Homo sapiens, UniProt Q9NYR8); assay: Oxidation by photoreceptor-specific RDH; assay type: biochemical; details: results not shown
T3 sequence (Q9NYR8 1-311): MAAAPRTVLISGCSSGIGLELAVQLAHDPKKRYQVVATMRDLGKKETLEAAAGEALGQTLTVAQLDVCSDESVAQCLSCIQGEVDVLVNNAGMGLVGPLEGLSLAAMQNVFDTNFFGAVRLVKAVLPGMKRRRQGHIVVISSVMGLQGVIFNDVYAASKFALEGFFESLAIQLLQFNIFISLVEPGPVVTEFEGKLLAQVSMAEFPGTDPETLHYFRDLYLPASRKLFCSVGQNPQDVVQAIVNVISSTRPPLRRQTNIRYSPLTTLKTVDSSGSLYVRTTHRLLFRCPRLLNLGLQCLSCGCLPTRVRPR

mouse RetSat = biological target: T4, mouse RetSat (Mus musculus, UniProt Q64FW2); assay: RetSat saturase activity in Tet-induced HEKK-RetSat cells; assay type: cell-based; details: 40 μM substrate, overnight incubation
T4 construct: expressed in transfected cells
T4 sequence (Q64FW2 26-609): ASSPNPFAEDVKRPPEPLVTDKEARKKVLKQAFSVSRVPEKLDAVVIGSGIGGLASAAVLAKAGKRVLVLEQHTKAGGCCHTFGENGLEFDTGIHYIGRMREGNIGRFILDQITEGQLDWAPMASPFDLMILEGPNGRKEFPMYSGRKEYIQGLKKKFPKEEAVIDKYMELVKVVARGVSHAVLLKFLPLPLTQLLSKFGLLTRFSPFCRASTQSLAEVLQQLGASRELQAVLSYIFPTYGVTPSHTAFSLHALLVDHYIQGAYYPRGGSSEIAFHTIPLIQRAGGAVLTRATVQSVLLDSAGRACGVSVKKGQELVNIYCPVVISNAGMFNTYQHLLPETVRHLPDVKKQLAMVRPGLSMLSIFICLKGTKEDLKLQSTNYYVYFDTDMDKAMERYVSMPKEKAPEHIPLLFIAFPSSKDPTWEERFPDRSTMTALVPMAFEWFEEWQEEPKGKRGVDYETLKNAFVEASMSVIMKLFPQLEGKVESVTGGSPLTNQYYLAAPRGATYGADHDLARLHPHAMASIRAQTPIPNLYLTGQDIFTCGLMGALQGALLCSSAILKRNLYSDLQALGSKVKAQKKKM
Procedure: Enzyme assays of RetSat and CRTISO-catalyzed reactions. For enzyme assay, cells were seeded in six-well plates and expression of RetSat or CRTISO was induced with 1 μg/ml tetracycline 48 hr prior to analysis. Substrate preparation and addition were conducted under dim red light. Retinoid substrates were purified by HPLC as described above and dissolved in N,N-dimethylformamide (DMF) to a final concentration of 4 mM. Organic extract of tangerine tomatoes was dried under a stream of argon and resuspended in DMF. The substrates were diluted in 300 μl complete media (tetracycline 1 μg/ml) to a 40 μM final concentration, overlayed on cells, and incubated overnight in the dark at 37° C. in 5% CO2 and 100% humidity. Media and cells were collected by scraping, mixed with an equal volume of methanol. For retinol and dihydroretinol analysis the methanol:water mixture was extracted with two volumes of hexane, then the organic phase was dried, resuspended in hexane, and analyzed by normal-phase HPLC. […] For carotenoid analysis the organic phase was dried and resuspended in ethanol/tetrahydrofuran (9:1) and examined by reverse-phase HPLC System I. For retinoic acid analysis the 1:1 methanol:water mixture was acidified with 0.1 volumes of 12N HCl and extracted with 1 volume of chlorofom, dried and resuspended in ethanol and examined by reverse-phase HPLC System II.

SMILES	Oxidation to polar metabolites by CYP26C1 (CYP26C1)	Oxidation to polar metabolites by CYP26A1 (CYP26A1)	Conversion to the acid by RPE microsomes [1]	Oxidation to the aldehyde by prRDH (prRDH)	Saturation by RetSat (substrate activity) (mouse RetSat)
CC1=C(/C=C/C(C)=C/C=C/C(C)CC(=O)O)C(C)(C)CCC1 (stereo not drawn) [all-trans-DRA, all-trans-13,14-dihydroretinoic acid]	efficiently carried out the oxidation	efficiently carried out the oxidation			
CC1=C(/C=C/C(C)=C/C=C/C(C)CCO)C(C)(C)CCC1 (stereo not drawn) [all-trans-DROL, all-trans-13,14-dihydroretinol]			efficiently converted	much less so	
CC1=C(/C=C/C(C)=C/C=C/C(C)=C/C(=O)O)C(C)(C)CCC1 [all-trans-RA, all-trans-retinoic acid, reference compound]	efficiently carried out the oxidation	efficiently carried out the oxidation			not substrate
CC1=C(/C=C/C(C)=C/C=C/C(C)=C/CO)C(C)(C)CCC1 [all-trans-ROL, all-trans-retinol]			catalyzed the conversion	active	good substrate
